Data from patent US8592407B2, “Pyrrolo[2,1-c][1,4] benzodiazepine derivatives with dithiocarbamate side chains and process for the preparation thereof” (Council of Scientific & Industrial Research, priority 2008, dated 2013).

Key:
calf thymus DNA (CT-DNA) = experiment: Thermal denaturation studies with duplex-form calf thymus DNA; assay type: binding; settings: [PBD]:[DNA] 1:5, CT-DNA 100 μM, ligand 20 μM, pH 7.00; for ΔTm after incubation at 37° C. for 0 h: 0 h at 37° C.; for ΔTm after incubation at 37° C. for 18 h: 18 h at 37° C.
Protocol: Compounds have been subjected to thermal denaturation studies with duplex-form calf thymus DNA (CT-DNA) using an modification of a reported procedure (Newman, M. S. Carcinog-compr. Surv. 1976, 1, 203; (b) Hecht, S. S.; Loy, M.; Hoffman, Carcinog-compr. Surv. 1976, 1, 325). Working solutions in aqueous buffer (10 mM NaH2PO4/Na2HPO4, 1 mM Na2EDTA, pH 7.00+0.01) containing CT-DNA (100 μm in phosphate) and the PBD (20 μm) have been prepared by addition of concentrated PBD solutions in DMSO to obtain a fixed [PBD]/[DNA] molar ratio of 1:5. The DNA−PBD solutions have been incubated at 37° C. for 0 and 18 h prior to analysis. Samples have been monitored at 260 nm using a Beckman DU-800 spectrophotometer fitted with high performance temperature controller, and heated at 1° C. min^−1
in the 40-110° C. range. DNA helix[…]coil transition temperatures (Tm) have been obtained from the maxima in the d(A260)/dT derivative plots. Drug-induced alterations in DNA melting behavior are given by: ΔTm=Tm(DNA+PBD)−Tm (DNA alone), where the Tm value for the PBD-free CT-DNA is 69.1±0.01.

[1] = tested on: Non-small-cell-lung panel; experiment: NCI screen, panel average; assay type: cell-based, human; settings: for LC50: Homo sapiens, read-out: Log10 LC50 (concentration in mol/L causing 50% lethality) (converted); for Log10 GI50 (concentration in mol/L): Non-small-cell-lung, average of six to eight cell lines
Melanoma panel = experiment: NCI screen, panel average; assay type: cell-based, human; settings: for LC50: Homo sapiens, read-out: Log10 LC50 (concentration in mol/L causing 50% lethality) (converted); for Log10 GI50 (concentration in mol/L): Melanoma, average of six to eight cell lines
Ovarian panel = experiment: NCI screen, panel average; assay type: cell-based, human; settings: for LC50 (50% lethal concentration): Homo sapiens, read-out: Log10 LC50 (concentration in mol/L causing 50% lethality) (converted); for Log10 GI50 (concentration in mol/L): Ovarian, average of six to eight cell lines
Renal panel = experiment: NCI screen, panel average; assay type: cell-based, human; settings: for LC50 (concentration causing 50% lethality): Homo sapiens, read-out: Log10 LC50 (concentration in mol/L causing 50% lethality) (converted); for Log10 GI50 (concentration in mol/L): Renal, average of six to eight cell lines
Breast panel = experiment: NCI screen, panel average; assay type: cell-based, human; settings: for Log10 GI50 (concentration in mol/L): Breast, average of six to eight cell lines; for LC50: Homo sapiens, read-out: Log10 LC50 (concentration in mol/L causing 50% lethality) (converted)
K-562 = experiment: NCI in vitro cytotoxicity (SRB); assay type: cell-based; settings: Homo sapiens, K562; Leukemia K-562; 48 h exposure
MOLT-4 = experiment: NCI in vitro cytotoxicity (SRB); assay type: cell-based; settings: Homo sapiens
EKVX = experiment: NCI in vitro cytotoxicity (SRB); assay type: cell-based; settings: Homo sapiens; Non-smallcell lung EKVX; 48 h exposure
HOP-62 = experiment: NCI in vitro cytotoxicity (SRB); assay type: cell-based; settings: Homo sapiens
NCI-H322M = experiment: NCI in vitro cytotoxicity (SRB); assay type: cell-based; settings: Homo sapiens; Non-smallcell lung NCI-H322M; 48 h exposure
COLO 205 = experiment: NCI in vitro cytotoxicity (SRB); assay type: cell-based; settings: Homo sapiens; Colon COLO 205; 48 h exposure
HCC-2998 = experiment: NCI in vitro cytotoxicity (SRB); assay type: cell-based; settings: Homo sapiens; Colon HCC-2998; 48 h exposure
SW-620 = experiment: NCI in vitro cytotoxicity (SRB); assay type: cell-based; settings: Homo sapiens
SF-268 = experiment: NCI in vitro cytotoxicity (SRB); assay type: cell-based; settings: Homo sapiens
U251 = experiment: NCI in vitro cytotoxicity (SRB); assay type: cell-based; settings: Homo sapiens, U-251; CNS U251; 48 h exposure
OVCAR-3 = experiment: NCI in vitro cytotoxicity (SRB); assay type: cell-based; settings: Homo sapiens
786-0 = experiment: NCI in vitro cytotoxicity (SRB); assay type: cell-based; settings: Homo sapiens; Renal 786-0; 48 h exposure
A498 = experiment: NCI in vitro cytotoxicity (SRB); assay type: cell-based; settings: Homo sapiens; Renal A498; 48 h exposure
ACHN = experiment: NCI in vitro cytotoxicity (SRB); assay type: cell-based; settings: Homo sapiens; Renal ACHN; 48 h exposure
TK-10 = experiment: NCI in vitro cytotoxicity (SRB); assay type: cell-based; settings: Homo sapiens; Renal TK-10; 48 h exposure
UO-31 = experiment: NCI in vitro cytotoxicity (SRB); assay type: cell-based; settings: Homo sapiens; Renal UO-31; 48 h exposure
MDA-MB- = experiment: NCI in vitro cytotoxicity (SRB); assay type: cell-based; settings: Homo sapiens; Breast MDA-MB-; 48 h exposure
T-47D = experiment: NCI in vitro cytotoxicity (SRB); assay type: cell-based; settings: Homo sapiens, T47D; Breast T-47D; 48 h exposure
MDA-MB-468 = experiment: NCI in vitro cytotoxicity (SRB); assay type: cell-based; settings: Homo sapiens
DU-145 = experiment: NCI in vitro cytotoxicity (SRB); assay type: cell-based; settings: Homo sapiens
SK-MEL-28 = experiment: NCI in vitro cytotoxicity (SRB); assay type: cell-based; settings: Homo sapiens; Melanoma SK-MEL-28; 48 h exposure
SK-MEL-5 = experiment: NCI in vitro cytotoxicity (SRB); assay type: cell-based; settings: Homo sapiens; Melanoma SK-MEL-5; 48 h exposure
UACC-62 = experiment: NCI in vitro cytotoxicity (SRB); assay type: cell-based; settings: Homo sapiens; Melanoma UACC-62; 48 h exposure
[2] = tested on: sixty human tumour cell lines; settings: mean over human tumour cell lines
Protocol: (§1) For each compound, dose response curves for each cell line were measured at a minimum of five concentrations at 10 fold dilutions. A protocol of 48 h continuous drug exposure was used and a sulforhodamine B (SRB) protein assay was used to estimate cell viability or growth. The concentration causing 50% cell growth inhibition (G150), total cell growth inhibition (TGI 0% growth) and 50% cell death (LC50, −50% growth) compared with the control was calculated.

[3] = tested on: sixty human tumour cell lines; experiment: cells; settings: read-out: GI50 value against sixty cell lines in nine cell panels
Protocol: as §1

Ovary OVCAR-5 = settings: human
[4] = Non-smallcell lung HOP-62, 48 h exposure
[5] = Breast MDA-MB-468, 48 h exposure

COc1cc2c(cc1OCCCN1CCN(C(=S)SCCC(C#N)(c3ccccc3)c3ccccc3)CC1)N=C[C@@H]1CCCN1C2=O [Compound 12b, 3-cyano-3,3-diphenylpropyl 4-(3-[(11aS)-7-(methyloxy)-5-oxo-2,3,5,11a-tetrahydro-1H-benzo[e]pyrrolo[1,2-a][1,4]diazepin-8-yl]oxypropyl)hexahydro-1-pyrazinecarbodithioate]
ΔTm after incubation at 37° C. for 0 h (calf thymus DNA (CT-DNA)): 2.0 °C | ΔTm after incubation at 37° C. for 18 h (calf thymus DNA (CT-DNA)): 4.0 °C | LC50 [1]: 11 µM | Log10 GI50 (concentration in mol/L) [1]: −6.07 mol/L | LC50 (Melanoma panel): 5.5 µM | Log10 GI50 (concentration in mol/L) (Melanoma panel): −5.94 mol/L | LC50 (50% lethal concentration) (Ovarian panel): 18.6 µM | Log10 GI50 (concentration in mol/L) (Ovarian panel): −6.03 mol/L | LC50 (concentration causing 50% lethality) (Renal panel): 4.07 µM | Log10 GI50 (concentration in mol/L) (Renal panel): −6.20 mol/L | Log10 GI50 (concentration in mol/L) (Breast panel): −6.13 mol/L | LC50 (Breast panel): 37.2 µM | GI50 (K-562): 0.26 µM | GI50 (MOLT-4; Leukemia MOLT-4, 48 h exposure): 0.22 µM | GI50 (MOLT-4; leukemia MOLT-4): 0.22 µM | GI50 (EKVX): 2.29 µM | GI50 (HOP-62; [4]): 0.12 µM | GI50 (HOP-62; non-small cell lung HOP-62): 0.21 µM | GI50 (NCI-H322M): 1.87 µM | GI50 (COLO 205): 1.3 µM | GI50 (HCC-2998): 1.64 µM | GI50 (SW-620; Colon SW-620, 48 h exposure): 0.51 µM | GI50 (SW-620; colon cancer SW-620): 0.51 µM | GI50 (SF-268; SF-268, CNS SF268): 0.28 µM | GI50 (SF-268; CNS SF-268, 48 h exposure): 0.28 µM | GI50 (U251): 0.39 µM | GI50 (OVCAR-3; Ovarian OVCAR-3, 48 h exposure): 0.28 µM | GI50 (OVCAR-3; ovarian OVCAR-3): 0.28 µM | GI50 (786-0): 1.06 µM | GI50 (A498): 0.91 µM | GI50 (ACHN): 0.94 µM | GI50 (TK-10): 0.65 µM | GI50 (UO-31): 1.1 µM | GI50 (MDA-MB-): 1.41 µM | GI50 (T-47D): 0.57 µM | GI50 (MDA-MB-468; MDA-MB-468, breast MDA-MEI-468): 0.28 µM | GI50 (MDA-MB-468; [5]): 0.28 µM | GI50 (DU-145; Prostate DU-145, 48 h exposure): 0.26 µM | GI50 (DU-145; prostate DU-145): 0.26 µM | GI50 (SK-MEL-28): 1.52 µM | GI50 (SK-MEL-5): 1.18 µM | GI50 (UACC-62): 1.06 µM | Log10GI50 mean graph midpoint (MG_MID) [2]: −6.15 | Log10LC50 mean graph midpoint (MG_MID) [2]: −4.96 | Log10TGI mean graph midpoint (MG_MID) [2]: −5.67 | GI50 [3]: < 2.69 µM

COc1cc2c(cc1OCCCCN1CCN(C(=S)SCCC(C#N)(c3ccccc3)c3ccccc3)CC1)N=C[C@@H]1CCCN1C2=O [Compound 12c, 3-cyano-3,3-diphenylpropyl 4-(4-[(11aS)-7-(methyloxy)-5-oxo-2,3,5,11a-tetrahydro-1H-benzo[e]pyrrolo[1,2-a][1,4]diazepin-8-yl]oxybutyl)hexahydro-1-pyrazinecarbodithioate]
ΔTm after incubation at 37° C. for 0 h (calf thymus DNA (CT-DNA)): 2.0 °C | ΔTm after incubation at 37° C. for 18 h (calf thymus DNA (CT-DNA)): 2.1 °C | LC50 [1]: 38.9 µM | Log10 GI50 (concentration in mol/L) [1]: −5.97 mol/L | LC50 (Melanoma panel): 7.41 µM | Log10 GI50 (concentration in mol/L) (Melanoma panel): −5.90 mol/L | LC50 (50% lethal concentration) (Ovarian panel): 55 µM | Log10 GI50 (concentration in mol/L) (Ovarian panel): −5.82 mol/L | LC50 (concentration causing 50% lethality) (Renal panel): 15.1 µM | Log10 GI50 (concentration in mol/L) (Renal panel): −6.05 mol/L | Log10 GI50 (concentration in mol/L) (Breast panel): −6.02 mol/L | LC50 (Breast panel): 66.1 µM | GI50 (K-562): 3.29 µM | GI50 (MOLT-4; Leukemia MOLT-4, 48 h exposure): 0.35 µM | GI50 (EKVX): 1.88 µM | GI50 (HOP-62; [4]): 0.71 µM | GI50 (NCI-H322M): 1.4 µM | GI50 (COLO 205): 1.4 µM | GI50 (HCC-2998): 1.57 µM | GI50 (SW-620; Colon SW-620, 48 h exposure): 1.12 µM | GI50 (SF-268; CNS SF-268, 48 h exposure): 1.23 µM | GI50 (U251): 1.11 µM | GI50 (OVCAR-3; Ovarian OVCAR-3, 48 h exposure): 1.2 µM | GI50 (786-0): 1.28 µM | GI50 (A498): 1.19 µM | GI50 (ACHN): 1.16 µM | GI50 (TK-10): 1.26 µM | GI50 (UO-31): 0.59 µM | GI50 (MDA-MB-): 1.53 µM | GI50 (T-47D): 0.57 µM | GI50 (MDA-MB-468; [5]): 0.49 µM | GI50 (DU-145; Prostate DU-145, 48 h exposure): 1.47 µM | GI50 (SK-MEL-28): 1.75 µM | GI50 (SK-MEL-5): 1.11 µM | GI50 (UACC-62): 1.32 µM | Log10GI50 mean graph midpoint (MG_MID) [2]: −5.98 | Log10LC50 mean graph midpoint (MG_MID) [2]: −4.48 | Log10TGI mean graph midpoint (MG_MID) [2]: −5.28 | Preliminary in vitro cytotoxicity data (Ovary OVCAR-5): 24%
